Data from PMC6500773 (Psychopharmacology, 2018).
Where two headings read alike, the source gives them in different places.

Experiments:
[1] = target: T1, hNET (Homo sapiens, UniProt P23975); assay: biochemical; type: binding
[2] = target: T1, hNET; assay: cell-based
[3] = target: T2, hDAT (Homo sapiens, UniProt Q01959); assay: Inhibition of [3H]DA uptake by HEK-hDAT cells; type: cell-based; details: for Ratio DAT/SERT: 1/(DAT IC50) divided by 1/(SERT IC50), uptake, higher = more DAT selective
[4] = target: T3, hSERT (Homo sapiens, UniProt P31645); assay: Drug-induced release of preloaded [3H]5-HT from HEK-hSERT cells; type: cell-based; details: for releasing efficacy at hSERT: [3H]5-HT release; for % maximum release ± sem, hSERT [3H]5-HT: relative to maximal AUC induced by METH (0.3–1 mM)
T3 sequence (P31645 whole entry): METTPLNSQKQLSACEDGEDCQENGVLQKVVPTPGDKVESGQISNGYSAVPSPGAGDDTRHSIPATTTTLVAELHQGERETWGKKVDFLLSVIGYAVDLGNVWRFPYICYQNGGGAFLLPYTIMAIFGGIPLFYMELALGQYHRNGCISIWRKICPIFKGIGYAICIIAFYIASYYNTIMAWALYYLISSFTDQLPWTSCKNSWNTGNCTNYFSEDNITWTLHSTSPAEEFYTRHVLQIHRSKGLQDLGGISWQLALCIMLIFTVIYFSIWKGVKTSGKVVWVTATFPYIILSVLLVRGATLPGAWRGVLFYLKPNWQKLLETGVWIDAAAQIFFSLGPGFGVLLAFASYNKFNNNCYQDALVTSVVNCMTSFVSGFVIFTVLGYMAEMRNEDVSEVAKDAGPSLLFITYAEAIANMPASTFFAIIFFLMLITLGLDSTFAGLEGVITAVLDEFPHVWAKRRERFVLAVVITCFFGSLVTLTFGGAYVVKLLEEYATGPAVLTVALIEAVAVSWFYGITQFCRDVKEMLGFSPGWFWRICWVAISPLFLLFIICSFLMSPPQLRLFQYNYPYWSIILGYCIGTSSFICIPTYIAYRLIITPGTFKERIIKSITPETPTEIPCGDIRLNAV

[5] = target: T2, hDAT; assay: Inhibition of [125I]RTI-55 binding, HEK-hDAT membranes; details: for fold decrease in hDAT affinity: compared to pentedrone
[6] = tested on: mouse striatum; details: administered orally, ref Fuwa et al. 2016; cited from earlier work
[7] = target: T2, hDAT; assay: Drug-induced release of preloaded [3H]DA from HEK-hDAT cells; type: cell-based; details: for releasing efficacy at hDAT: [3H]DA release; for % maximum release ± sem, hDAT [3H]DA: relative to maximal AUC induced by METH (1 or 10 μM)
[8] = target: T1, hNET; assay: Drug-induced release of preloaded [3H]NE from HEK-hNET cells; type: cell-based; details: for releasing efficacy at hNET: [3H]NE release; for EC50: read-out: Drug-induced release of [3H]neurotransmitter EC50 ± sem, hNET [3H]NE, HEK-hNET cells; for % maximum release ± sem, hNET [3H]NE: relative to maximal AUC induced by METH (0.3 or 1 μM)
[9] = target: T3, hSERT; assay: Inhibition of [125I]RTI-55 binding, HEK-hSERT membranes
[10] = target: T3, hSERT; assay: Inhibition of [3H]5-HT uptake by HEK-hSERT cells; type: cell-based; details: for fold increase in hSERT uptake potency: compared to pentedrone
[11] = read-out: Inhibition of [125I]RTI-55 binding Ki ± sem, hNET, HEK-hNET membranes
[12] = read-out: Inhibition of [3H]neurotransmitter uptake IC50 ± sem, hNET [3H]NE, HEK-hNET cells
[13] = read-out: Inhibition of [125I]RTI-55 binding Ki ± sem, hDAT, HEK-hDAT membranes

T2 sequence (Q01959 whole entry): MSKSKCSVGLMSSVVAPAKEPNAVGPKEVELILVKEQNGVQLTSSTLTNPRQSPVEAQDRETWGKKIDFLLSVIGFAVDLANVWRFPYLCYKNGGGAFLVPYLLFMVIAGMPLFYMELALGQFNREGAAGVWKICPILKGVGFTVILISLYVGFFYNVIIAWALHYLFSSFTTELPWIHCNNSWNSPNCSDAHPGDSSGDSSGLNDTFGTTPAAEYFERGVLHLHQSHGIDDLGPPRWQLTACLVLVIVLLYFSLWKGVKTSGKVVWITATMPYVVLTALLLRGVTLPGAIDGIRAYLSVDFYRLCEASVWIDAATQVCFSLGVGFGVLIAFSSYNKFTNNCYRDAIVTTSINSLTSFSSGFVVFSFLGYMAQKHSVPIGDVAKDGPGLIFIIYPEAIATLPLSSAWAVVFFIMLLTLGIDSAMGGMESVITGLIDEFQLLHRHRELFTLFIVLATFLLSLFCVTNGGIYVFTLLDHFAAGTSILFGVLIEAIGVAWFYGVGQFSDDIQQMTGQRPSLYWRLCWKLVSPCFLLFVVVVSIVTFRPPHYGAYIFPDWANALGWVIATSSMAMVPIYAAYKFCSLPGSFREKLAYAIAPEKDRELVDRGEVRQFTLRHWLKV
T1 sequence (P23975 whole entry): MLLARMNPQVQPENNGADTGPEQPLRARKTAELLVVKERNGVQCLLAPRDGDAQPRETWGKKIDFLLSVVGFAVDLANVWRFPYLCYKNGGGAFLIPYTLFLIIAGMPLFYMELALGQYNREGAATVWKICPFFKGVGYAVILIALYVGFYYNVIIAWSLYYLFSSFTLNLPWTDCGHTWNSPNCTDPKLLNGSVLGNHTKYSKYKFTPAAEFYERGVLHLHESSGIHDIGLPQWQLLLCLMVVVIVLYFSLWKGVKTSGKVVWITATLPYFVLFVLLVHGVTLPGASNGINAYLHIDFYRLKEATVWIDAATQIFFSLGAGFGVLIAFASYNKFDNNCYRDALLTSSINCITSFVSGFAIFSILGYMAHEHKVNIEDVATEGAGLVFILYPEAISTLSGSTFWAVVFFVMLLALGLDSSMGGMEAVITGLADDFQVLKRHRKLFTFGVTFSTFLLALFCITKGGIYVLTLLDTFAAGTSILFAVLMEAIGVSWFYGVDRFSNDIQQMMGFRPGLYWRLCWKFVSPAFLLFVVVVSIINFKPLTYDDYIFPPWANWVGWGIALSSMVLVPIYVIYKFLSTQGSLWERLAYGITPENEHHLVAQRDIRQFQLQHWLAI

SMILES | Ki [1, 11] [µM] | IC50 [2, 12] [µM] | Ratio DAT/SERT [3] | Ki [5, 13] [µM] | Ki [1] [µM] | IC50 [2] [µM] | Ki [9] [µM] | IC50 [3] [µM] | Ki [5] [µM] | IC50 [10] [µM] | further results
CNC(C)Cc1cc2ccccc2o1 (stereo not drawn) [2-MAPB, N,α-dimethyl-2-benzofuranethanamine] | 1.99 ± 0.22 | 0.0393 ± 0.0052 | 3.0 | 1.63 ± 0.44 | – | – | – | – | – | – | releasing efficacy at hSERT [4]: partial release; % maximum release ± sem, hSERT [3H]5-HT [4]: 77.3 ± 5.3%; increase in extracellular 5-HT levels [6]: 6- to 12 fold; releasing efficacy at hDAT [7]: partial release; % maximum release ± sem, hDAT [3H]DA [7]: 48.0 ± 2.6%; releasing efficacy at hNET [8]: partial release; EC50 [8]: 0.45 ± 0.12 µM; % maximum release ± sem, hNET [3H]NE [8]: 63 ± 10%
CCCCC(C(=O)c1ccc2c(c1)OCO2)N1CCCC1 (stereo not drawn) [3,4-MDPHP, 3,4-methylenedioxy-α–pyrrolidinohexanophenone] | – | – | 160 | – | 0.935 ± 0.093 | 0.047 ± 0.01 | 2.43 ± 0.51 | 0.0084 ± 0.0022 | 0.0192 ± 0.0051 | 1.34 ± 0.41 | –
CNC(C)C(=O)c1cccc(C)c1 (centres unmarked) [3-MMC, 3-methylmethcathinone] | 2.85 ± 0.72 | 0.084 ± 0.023 | 10 | 6.33 ± 0.72 | – | – | – | – | – | – | fold higher hSERT affinity ([9]; compared to MCAT): ~ 40 fold; fold higher hSERT uptake potency ([10]; compared to MCAT): 6.5 fold
CCNC(C)C(=O)c1ccc(Cl)cc1 (centres unmarked) [4-CEC, 4-Cl-ethcathinone] | 16.3 ± 5.7 | 1.72 ± 0.24 | 0.39 | 4.17 ± 0.53 | – | – | – | – | – | – | releasing efficacy at hSERT [4]: full releasing efficacy; selectivity for SERT over DAT (uptake potency) ([10]; uptake inhibition potencies): 3 fold; releasing efficacy at hDAT [7]: minimal releasing efficacy; % maximum release ± sem, hDAT [3H]DA [7]: 1.17 ± 0.05%; releasing efficacy at hNET [8]: minimal releasing efficacy; EC50 [8]: > 100 µM; % maximum release ± sem, hNET [3H]NE [8]: 5.9 ± 2.5%
CCCC(NC)C(=O)c1ccc(Cl)cc1 (centres unmarked) [4-CPD, 4-chloro pentedrone] | 4.54 ± 0.89 | 0.47 ± 0.14 | 1.3 | 1.62 ± 0.4 | – | – | – | – | – | – | fold decrease in hDAT affinity [5]: 4- to 5 fold; fold increase in hSERT uptake potency [10]: 15- to 17 fold
CC(C(=O)c1ccc(Cl)cc1)N1CCCC1 (stereo not drawn) [4-Cl-α-PPP, 4’-chloro-α-pyrrolidinopropiophenone] | – | – | 8.8 | – | 3.58 ± 0.92 | 1.42 ± 0.38 | 12.7 ± 3.2 | 0.73 ± 0.13 | 1.3 ± 0.45 | 6.4 ± 1.5 | –
CCCCC(C(=O)c1ccc(F)cc1)N1CCCC1 (stereo not drawn) [4-F-α-PHP, 4’-fluoro-α–pyrrolidinohexanophenone] | – | – | 240 | – | 1.73 ± 0.25 | 0.218 ± 0.029 | 8.01 ± 0.84 | 0.0382 ± 0.0044 | 0.122 ± 0.027 | 9.11 ± 0.54 | –
CCCC(NCC)C(=O)c1ccc(C)cc1 (stereo not drawn) [4-MEAP, 4-methyl-α-ethylaminopentiophenone] | 0.576 ± 0.085 | 0.083 ± 0.018 | 6.4 | 0.123 ± 0.026 | – | – | – | – | – | – | fold increase in hSERT affinity ([9]; compared to pentedrone): 20 fold; fold decrease in hDAT selectivity ([3]; compared to pentedrone): 8 fold; fold decrease in DAT selectivity ([3]; compared to α-EPP): 10 fold; fold increase in hSERT uptake potency [10]: 8 fold
CCCC(NC)C(=O)c1ccc(C)cc1 (centres unmarked) [4-MPD, 4-methyl pentedrone] | 3.39 ± 0.48 | 0.307 ± 0.061 | – | 1.45 ± 0.31 | – | – | – | – | – | – | fold decrease in hDAT affinity [5]: 4- to 5 fold; fold increase in hSERT uptake potency [10]: 15- to 17 fold
CCCCC(C(=O)c1ccc(C)cc1)N1CCCC1 (stereo not drawn) [4-Me-α-PHP, 4’-methyl-α–pyrrolidinohexanophenone] | – | – | 120 | – | 0.75 ± 0.16 | 0.042 ± 0.011 | 4.78 ± 0.26 | 0.0132 ± 0.0036 | 0.023 ± 0.0062 | 1.58 ± 0.4 | –
CCNC(C)Cc1ccc2occc2c1 (centres unmarked) [5-EAPB, reference compound] | – | – | – | – | – | – | – | – | – | – | increase in extracellular 5-HT levels [6]: 6- to 12 fold
CNC(C)Cc1ccc2occc2c1 (stereo not drawn) [5-MAPB, N,α-dimethyl-5-benzofuranethanamine] | 3.15 ± 0.27 | 0.073 ± 0.018 | 1.4 | 2.66 ± 0.61 | – | – | – | – | – | – | releasing efficacy at hSERT [4]: fully efficacious; % maximum release ± sem, hSERT [3H]5-HT [4]: 104.3 ± 5.7%; increase in extracellular 5-HT levels [6]: 6- to 12 fold; releasing efficacy at hDAT [7]: partially efficacious; % maximum release ± sem, hDAT [3H]DA [7]: 53.8 ± 6.6%; releasing efficacy at hNET [8]: partially efficacious; EC50 [8]: 0.58 ± 0.21 µM; % maximum release ± sem, hNET [3H]NE [8]: 89.0 ± 8.0%
